Source: article PMC10254306, “Piplartine-Inspired 3,4,5-Trimethoxycinnamates: Trypanocidal, Mechanism of Action, and In Silico Evaluation” (Molecules, 2023)
“And” between values parts separate entries of the source, which are not always exact repeats. Identical values can stand only once.

Assays:
[1] = system: epimastigote forms of T. cruzi; experiment: Cell death profile, 7-AAD / annexin V-PE labeling; type: cell-based, Trypanosoma cruzi; conditions: 157 and 314 µM, 24 h
Procedure: Epimastigote forms were used to analyze the cell death profile through labeling with AxPE and 7-AAD. Initially, the cells were divided into four cell populations: viable cells—with a low level of labeling (7AAD−/AxPE−); necrotic cells—labeled with 7-AAD (7AAD+/AxPE−); apoptotic cells—labeled with annexin V-PE (7AAD−/AxPE+); and cells in late apoptosis—doubly labeled (7AAD+/AxPE+).
The cells were treated with 11 for 24 h at concentrations of 157 and 314 µM.
The epimastigote forms of T. cruzi were cultivated at a density of 10^6 cells/mL in the presence of 11 (157 and 314 µM) for 24 h in a stove. Then, the cells were transferred to cytometry tubes, centrifuged at 4000 RPM for 5 min and washed twice with phosphate-buffered saline and binding buffer (pH 7.4; a compound of HEPES solution 10 mM; NaCl 140 mM; and CaCl2 2.5 mm). After the last centrifugation, the pellet was resuspended in 100 µL binding buffer, 5 µL 7-AAD (0.5 mg/mL), and 5 µL Ax/PE. The procedure was performed using a commercial kit (Annexin V PE Apoptosis Detection Kit I, BD Biosciences) and following the manufacturer’s guidelines. After 15 min of incubation in the dark, 400 µL of binding buffer was added to each tube, and the cells were analyzed on the FACSCalibur (BD Biosciences). For each tube, a minimum of 10^4 cells were analyzed to quantify the percentage of unlabeled cells and were either singly or double labeled with 7-AAD and Ax/PE. For this, an argon laser (488 nm) was used to excite the fluorochromes. Ax/PE-labeled cells were read by the FL2 detector (563 to 606 nm, yellow fluorescence), while 7-AAD-labeled cells were read at 615 to 645 nm wavelength (red fluorescence, FL3 detector).

T. cruzi epimastigotes = experiment: Mitochondrial transmembrane potential, rhodamine 123 flow cytometry; type: cell-based, Trypanosoma cruzi; conditions: 157 and 314 µM, 24 h
Procedure: In addition, the mitochondrial damage exerted by 11 on the parasite was evaluated through the mitochondrial transmembrane potential assay using the fluorescent dye rhodamine 123 (Rho 123).
Initially, 11 (157 and 314 µM) and epimastigote forms (10^6 cells/mL) were added in 24-well plates. After 24 h, the cells were centrifuged and washed with phosphate-buffered saline. Subsequently, the cells were resuspended in 100 µL of phosphate-buffered saline, and 5 µL of Rho123 solution (10 µg/mL) was added. Thus, the samples were incubated in the dark for 30 min, washed, and resuspended with phosphate-buffered saline (500 µL/tube) for analysis by flow cytometry. Results were evaluated by relative fluorescence intensity, calculated as described above.

[2] = system: epimastigote forms of T. cruzi, Y strain; experiment: Trypanocidal activity on epimastigote forms (growth inhibition, Neubauer chamber count); type: cell-based, Trypanosoma cruzi
Procedure: (§1) Initially, the prepared esters were submitted to in vitro tests using the microdilution technique in 96-well plates to evaluate the trypanocidal activity against the epimastigote evolutionary form at different concentrations (200–3.12 μg/mL). Then, the compounds with the best activity were tested against the trypomastigote form of T. cruzi. In both assays, IC50 values were calculated; a compound is considered to have trypanocidal activity when IC50 <40 μM [21]. The results are expressed in Table 1.
Initially, epimastigotes were cultured and distributed in 96-well plates at a density of 10^6 cells/mL in liver infusion tryptose medium supplemented with 10% fetal bovine serum (FBS) and 1% antibiotic. Then, the cells were treated with piplartine analogues at different concentrations and incubated at 28 °C for 24 h. To quantify the growth inhibition of the parasites, a Neubauer chamber was used, and the IC50 was defined.

LLC-MK2 cells = experiment: In vitro cytotoxicity, MTT assay; type: cell-based, Rhesus monkey
Procedure: (§2) The compounds were considered selective for the parasite when SI ≥ 10 [21]. The results are expressed in Table 2.
(§3) For the cytotoxicity analysis, the (3-[4,5-dimethylthiazol-2-yl]-2,5 diphenyl tetrazolium bromide) (MTT) assay was used, in which the LLC-MK2 cells were cultured in Dulbecco’s Modified Eagle Medium (DMEM), then exposed to the piplartine analogues at different concentrations (25–200 μg/mL) and incubated for 24 h at 37 °C. Then MTT was added, and the cells were incubated for 4 h, after which 10% sodium dodecyl sulfate was added. […] To calculate the relative cell viability, cells treated only with sterile phosphate-buffered saline were used as a negative control. The experiments were conducted in triplicates.

[3] = In vitro cytotoxicity, MTT assay; type: cell-based, Rhesus monkey; conditions: Rhesus monkey, LLC-MK2 renal epithelial cells; MTT, 24 h; read-out: LLCK-MK2 CC50
Procedure: as §2, §3

[4] = system: epimastigote forms of T. cruzi; experiment: Scanning electron microscopy of morphological changes; type: cell-based, Trypanosoma cruzi; conditions: 24 h of treatment, 157 µM
Procedure: In addition, scanning electron microscopy was used to analyze possible morphological alterations of epimastigote forms treated with compound 11. […] Similar results were obtained by treating epimastigote forms with pentyl p-coumarate.
To evaluate the changes induced by 11 in the ultrastructure of T. cruzi, the epimastigote forms were incubated with them for 24 h. After this period, the samples were centrifuged (5000 rpm; 10 min), the supernatant discarded, and the pellet resuspended in glutaraldehyde solution (2.5%) and incubated for 2 h. The fixed samples were again centrifuged and exposed to increasing concentrations of ethanol (30, 50, 70, 90, and 100%) for dehydration, followed by centrifugation (5000 rpm; 5 min). Finally, the cells were transferred to the surface of circular coverslips (15 mm) and dried in a CO2 oven. The coverslips were covered with a gold layer (20 nm thick) using the QT150 ES-Quorum Metallizer and analyzed in a Quanta 450 FEG-FEI scanning electron microscope to observe changes in the three-dimensional structure of the epimastigote forms of T. cruzi.

[5] = system: epimastigote cells of T. cruzi; experiment: Cytoplasmic reactive oxygen species, DCFH-DA flow cytometry; type: cell-based, Trypanosoma cruzi; conditions: 157 and 314 µM, 24 h
Procedure: To elucidate the mechanism of action of 11, the increase in the concentration of ROS inside epimastigote cells of T. cruzi was evaluated through fluorescent techniques using 2′,7′–dichlorofluorescein diacetate (DCFH-DA). The results are illustrated in Figure 2 and Figure 3.
The DCFH-DA assay was used to evaluate the increase in ROS concentration in the cytoplasm of epimastigote cells treated with 11. Initially, 10^6 epimastigote cells/mL were added to 24-well plates in the presence of 11 (157 μM and 314 µM). After 3 h, 10 µL of a solution of DCFH-DA (20 µM in DMSO) was added. After 24 h, the cells were centrifuged (2800 RPM for 7 min), washed, and resuspended in 500 µL of phosphate buffered saline for flow cytometer analysis. Thus, the level of labeling in each group was analyzed by the geometric mean of the fluorescence intensity, and the results were expressed as relative fluorescence intensity according to the following formula (Equation (1)): (1) Relative fluorescence=mTest/mControl mTEST = geometric mean of the interest group; mCONTROL = geometric mean of the control group.

[6] = system: trypomastigote forms of T. cruzi, Y strain; experiment: Trypanocidal activity on trypomastigote forms (viability by counting); type: cell-based, Trypanosoma cruzi
Procedure: as §1
Trypomastigote forms were obtained by infecting LLC-MK2 cells with the parasite; in this way, the cells were incubated for 24 h in T-25/75 cm^2 flasks at 37 °C in an atmosphere with 5% CO2 in DMEM medium supplemented with 2% FBS and 1% antibiotic. Subsequently, the trypomastigote forms were distributed in 96-well plates treated with piplartine analogues at different concentrations (200; 100; 50; 25; 12.5; 6.25; 3.12 μg/mL) and incubated at 37 °C for 24 h. The assessment of cell viability was performed by counting, and the IC50 was defined.

[7] = system: trypomastigote forms of T. cruzi; design: method as in PMID 31775321; conditions: read-out: IC50 trypomastigote form; cited from earlier work
[8] = system: epimastigote form of T. cruzi; design: method as in PMID 31775321; conditions: cited from earlier work
[9] = Trypanosoma cruzi, Y strain, 24 h

Structure (SMILES) | apoptotic cells (7AAD−/AxPE+) vs control [1] | cells in late apoptosis (7AAD+/AxPE+) vs control [1] | percentage of necrotic cells (7AAD+/AxPE−) vs control [1] | percentage of viable cells (7AAD−/AxPE−) vs control [1] | accumulation of rhodamine 123 (mitochondrial transmembrane potential) vs control (T. cruzi epimastigotes) | IC50 [2, 9] | Selectivity Index (SI) Epimastigote ([2]; ratio CC50 (LLC-MK2) / IC50 epimastigote) | toxicity on LLC-MK2 host cells (in words) (LLC-MK2 cells; highest concentration tested (200 μg/mL)) | selectivity for the parasite (SI) (LLC-MK2 cells; parasite form not specified, conclusions) | CC50 at 24 h [3] | ultrastructural alterations by scanning electron microscopy [4] | relative fluorescence DCFH-DA (cytoplasmic ROS) vs control [5] | IC50 [6, 9] | Selectivity Index (SI) Trypomastigote ([6]; ratio CC50 (LLC-MK2) / IC50 trypomastigote) | IC50 [7] [µM] | IC50 [8] [µM]
COc1cc(/C=C/C(=O)OCc2ccco2)cc(OC)c1OC [Compound 11, (E)-furan-2-ylmethyl 3-(3,4,5-trimethoxyphenyl)acrylate] | increase in apoptotic cells | increase in cells in late apoptosis | increase in the percentage of necrotic cells | reduction in the percentage of viable cells | reduction in the accumulation of rhodamine | 8.98 µg/mL and 28.2 µM | >22.2 | did not show toxicity at the highest concentration tested | > 10 | > 200 µg/mL and > 628 µM | pore formation and content leakage in the cytoplasm | increase in relative fluorescence | 15 µg/mL and 47 µM | >13.4 |  | 
CCCCCOC(=O)/C=C/c1ccc(O)cc1 [pentyl p-coumarate] |  |  |  |  |  |  |  |  |  |  |  |  |  |  | 61.6 | 5.16
